Measurements published in patent publication US12509460B2 (Skyhawk Therapeutics, Inc., priority 2019, dated 2025).
Like-named read-outs stand apart in the source and are kept apart here.

Legend:
[1] = Quantitative splicing assay (HTT), qPCR; format: cell-based, human; conditions: Homo sapiens, GM04724, 24 h, GM04724 lymphoblasts, read-out: HTT Splicing: E49-50 EC50
In short: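 Patient lymphoblasts (50,000 cells/well) dosed immediately after plating for 24 h at 2.5 uM to 0.15 nM in 0.1% DMSO. Lysed, cDNA made directly from cells, and inclusion of the intron 49 cryptic exon quantified by TaqMan qPCR.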

[2] = system: SMN FL and SMN Δ7 in spinal muscular atrophy (SMA) patient fibroblasts (GM03813, Coriell); assay: Quantitative splicing assay (SMN), qPCR; format: cell-based, human; conditions: Homo sapiens, Fibroblast, 24 h, read-out: SMN2 Splicing FL EC50
Method: Spinal muscular atrophy (SMA) patient fibroblasts (GM03813, Coriell) are plated in 96-well plates at 50,000 cells/well. […] Treated cells are lysed and cDNA synthesized using the Fast Advanced Cells-to-Ct kit (Thermofisher A35378) according to the manufacturer's instructions. 2 μL of each cDNA are used in qPCR reactions. […] Reactions are run in a Quant Studio 6 qPCR instrument with default settings.

[3] = system: SMN protein in spinal muscular atrophy (SMA) patient fibroblasts (GM03813, Coriell); assay: SMN protein assay, Mesoscale Discovery (MSD); format: cell-based, human; conditions: read-out: SMN2 protein EC50
In short: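 SMA patient fibroblasts (GM03813) seeded at 7000 cells/well and exposed to compound at 2.5 μM to 0.6 nM for 48 hours. Lysates assayed for SMN by MSD immunoassay, with absolute SMN amount calculated from a per-plate SMN standard curve (1 μg/ml to 19.5 pg/ml).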

[4] = system: mHTT protein in GM04724 (CAG 70/20) Huntington's disease patient lymphoblast cells; assay: mHTT protein assay, 2B7-MW1 assay via Mesoscale Discovery (MSD); format: cell-based, human
In short: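 Patient lymphoblasts treated 48 h with compound from 10 μM to 0.6 nM. mHTT quantified by MSD 2B7-MW1 immunoassay, whose signal depends on polyQ expansion and HTT size. Viability measured on a replicate plate by CellTiter Glo.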

MDR1 (P-gp) = assay: Blood-brain-barrier (BBB) penetration potential via MDCK-MDR1 permeability assay; conditions: dog; for Papp A→B at 120 min, 5 μM: MDCK-MDR1, pH 7.4, MDCK-MDR1: Papp A-B; for Papp B→A at 120 min, 5 μM: MDCK-MDR1, pH 7.4, MDCK-MDR1: Papp B-A
MDR1 = assay: as above; conditions: dog, MDCK-MDR1, pH 7.4, MDCK-MDR1: Efflux
[5] = system: MDR1-MDCK cell monolayers; assay: as above
[6] = SMA patient fibroblasts GM03813, 24 h, qPCR
[7] = SMA patient fibroblasts GM03813, 48 hours, MSD
[8] = GM04724 Huntington's disease patient lymphoblasts
[9] = SMA patient fibroblasts (GM03813)
[10] = SMA patient fibroblasts (GM03813), 48 hours
[11] = GM04724 (CAG 70/20) Huntington's disease patient lymphoblasts

| Structure (SMILES) | EC50 ([1]; qPCR) [nM] | EC50 [2, 6] [nM] | EC50 [3, 7] [nM] | EC50 [4, 8] [nM] | Papp A→B at 120 min, 5 μM (MDR1 (P-gp); A-B direction) [×10⁻⁶ cm/s] | Papp B→A at 120 min, 5 μM (MDR1 (P-gp); B-A direction) [×10⁻⁶ cm/s] | efflux ratio at 120 min, 5 μM (MDR1; efflux ratio) | MDCK-MDR1: % Recov A-B ([5]; A-B direction) [%] | MDCK-MDR1: % Recov B-A ([5]; B-A direction) [%] | EC50 [1] [nM] | EC50 [2, 9] [nM] | EC50 [3, 10] [nM] | EC50 [4, 11] [nM] | Papp A→B at 120 min, 5 μM (MDR1 (P-gp); A-B) [×10⁻⁶ cm/s] | Papp B→A at 120 min, 5 μM (MDR1 (P-gp); B-A) [×10⁻⁶ cm/s] | efflux ratio at 120 min, 5 μM (MDR1) | MDCK-MDR1: % Recov A-B ([5]; A-B) [%] | MDCK-MDR1: % Recov B-A ([5]; B-A) [%] |
| --- | --- | --- | --- | --- | --- | --- | --- | --- | --- | --- | --- | --- | --- | --- | --- | --- | --- | --- |
| CN(c1ccc(-c2cc3oc(=O)n(C)c3cc2O)nn1)[C@@H]1C[C@H]2CC[C@H](N2)[C@@H]1F (single isomer, unassigned) [Compound 79A] | 16 to 50 | 16 to 50 | 0.01 to 15 | 0.01 to 15 | 2.51 | 34.9 | 14 | 89 | 99 |  |  |  |  |  |  |  |  |  |
| CN(c1ccc(-c2cc3c(=O)n(C)ccc3cc2O)nn1)[C@@H]1C[C@H]2CC[C@@H]([C@@H]1F)N2C [Compound 98A, 7-(6-(((1S,2S,3R,5R)-2-fluoro-8-methyl-8-azabicyclo[3.2.1]octan-3-yl)(methyl)amino)pyridazin-3-yl)-6-hydroxy-2-methylisoquinolin-1(2H)-one] |  |  |  |  |  |  |  |  |  | 101 to 500 | 101 to 500 | 16 to 50 | 101 to 500 | 4.11 | 64.7 | 16 | 86 | 105 |
| Cc1nc2cc(O)c(-c3ccc(N(C)[C@H]4C[C@@H]5CC[C@@H](N5)[C@H]4F)nn3)cc2s1 [Compound 116B, 6-(6-(((1R,2R,3S,5S)-2-fluoro-8-azabicyclo[3.2.1]octan-3-yl)(methyl)amino)pyridazin-3-yl)-2-methylbenzo[d]thiazol-5-ol] |  |  |  |  |  |  |  |  |  | 0.01 to 15 | 0.01 to 15 | 0.01 to 15 | 0.01 to 15 | 6.29 | 43.2 | 7 | 77 | 80 |
| CN(c1ccc(-c2ccc(-n3ccnn3)cc2O)nn1)[C@@H]1C[C@H]2CCC[C@H](N2)[C@@H]1F [Compound 62A, 2-(6-(((1S,2S,3R,5R)-2-fluoro-9-azabicyclo[3.3.1]nonan-3-yl)(methyl)amino)pyridazin-3-yl)-5-(1H-1,2,3-triazol-1-yl)phenol] | 0.01 to 15 | 16 to 50 | 16 to 50 | 0.01 to 15 | 3.37 | 61.4 | 18 | 113 | 109 |  |  |  |  |  |  |  |  |  |
| CN(c1ccc(-c2cc3ncccc3cc2O)nn1)[C@@H]1C[C@H]2CC[C@H](N2)[C@@H]1F [Compound 73A, 7-(6-(((1S,2S,3R,5R)-2-fluoro-8-azabicyclo[3.2.1]octan-3-yl)(methyl)amino)pyridazin-3-yl)quinolin-6-ol] | 0.01 to 15 | 0.01 to 15 | 0.01 to 15 | 0.01 to 15 | 2.92 | 61.3 | 21 | 76 | 91 |  |  |  |  |  |  |  |  |  |
| CN(c1ccc(-c2cc3cccnc3cc2O)nn1)[C@H]1C[C@@H]2CC[C@@H](N2)[C@H]1F [Compound 74B, 6-(6-(((1R,2R,3S,5S)-2-fluoro-8-azabicyclo[3.2.1]octan-3-yl)(methyl)amino)pyridazin-3-yl)quinolin-7-ol] | 51 to 100 | 16 to 50 | 0.01 to 15 | 0.01 to 15 | 3 | 56 | 19 | 77 | 90 |  |  |  |  |  |  |  |  |  |
| CN(c1ccc(-c2ccc(-c3cn[nH]c3)cc2O)nn1)[C@@H]1C[C@H]2CC[C@H](N2)[C@@H]1F (single isomer, unassigned) [Compound 42A] | 0.01 to 15 | 0.01 to 15 | 0.01 to 15 | 0.01 to 15 | 0.86 | 36.8 | 43 | 87 | 91 |  |  |  |  |  |  |  |  |  |
| CN(c1ccc(-c2cc3nccnc3cc2O)nn1)[C@H]1C[C@@H]2CC[C@@H](N2)[C@H]1F [Compound 88B, 7-(6-(((1R,2R,3S,5S)-2-fluoro-8-azabicyclo[3.2.1]octan-3-yl)(methyl)amino)pyridazin-3-yl)quinoxalin-6-ol] | 16 to 50 | 16 to 50 | 0.01 to 15 | 16 to 50 | 6.88 | 50.5 | 7 | 84 | 93 |  |  |  |  |  |  |  |  |  |
| Cc1nc2cc(-c3ccc(N(C)[C@H]4C[C@@H]5CC[C@@H](N5)[C@H]4F)nn3)c(O)cc2c(=O)n1C [Compound 114B, 7-(6-(((1R,2R,3S,5S)-2-fluoro-8-azabicyclo[3.2.1]octan-3-yl)(methyl)amino)pyridazin-3-yl)-6-hydroxy-2,3-dimethylquinazolin-4(3H)-one] |  |  |  |  |  |  |  |  |  | 0.01 to 15 | 0.01 to 15 | 0.01 to 15 | 0.01 to 15 | 0.29 | 43 | 150 | 88 | 94 |
| CN(c1ccc(-c2ccc(-n3nccn3)cc2O)nn1)[C@@H]1C[C@H]2CCC[C@H](N2)[C@@H]1F [Compound 5A, 2-(6-(((1S,2S,3R,5R)-2-fluoro-9-azabicyclo[3.3.1]nonan-3-yl)(methyl)amino)pyridazin-3-yl)-5-(2H-1,2,3-triazol-2-yl)phenol] | 0.01 to 15 | 16 to 50 | 0.01 to 15 | 0.01 to 15 | 4.85 | 20.1 | 4 | 29 | 58 |  |  |  |  |  |  |  |  |  |
| Cc1nc2cc(-c3ccc(N(C)[C@@H]4C[C@H]5CC[C@H](N5)[C@@H]4F)nn3)c(O)cc2s1 [Compound 115A, 5-(6-(((1S,2S,3R,5R)-2-fluoro-8-azabicyclo[3.2.1]octan-3-yl)(methyl)amino)pyridazin-3-yl)-2-methylbenzo[d]thiazol-6-ol] |  |  |  |  |  |  |  |  |  | 16 to 50 | 16 to 50 | 0.01 to 15 | 0.01 to 15 | 4.7 | 39.3 | 8 | 93 | 78 |
| Cc1nc2cc(-c3ccc(N(C)[C@H]4C[C@@H]5CC[C@@H](N5)[C@H]4F)nn3)c(O)cc2s1 [Compound 115B, 5-(6-(((IR,2R,3S,5S)-2-fluoro-8-azabicyclo[3.2.1]octan-3-yl)(methyl)amino)pyridazin-3-yl)-2-methylbenzo[d]thiazol-6-ol] |  |  |  |  |  |  |  |  |  | 0.01 to 15 | 0.01 to 15 | 0.01 to 15 | 0.01 to 15 | 6.4 | 42.6 | 7 | 71 | 88 |
| Cc1cnc(-c2ccc(-c3ccc(N(C)[C@H]4C[C@@H]5CCC[C@@H](N5)[C@H]4F)nn3)c(O)c2)o1 [Compound 16B, 2-(6-(((1R,2R,3S,5S)-2-fluoro-9-azabicyclo[3.3.1]nonan-3-yl)(methyl)amino)pyridazin-3-yl)-5-(5-methyloxazol-2-yl)phenol] | 0.01 to 15 | 16 to 50 | 0.01 to 15 | 16 to 50 | 1.16 | 18.7 | 16 | 24 | 26 |  |  |  |  |  |  |  |  |  |
| Cc1cnc(-c2ccc(-c3ccc(N(C)[C@@H]4C[C@H]5CCC[C@H](N5)[C@@H]4F)nn3)c(O)c2)o1 [Compound 16A, 2-(6-(((1S,2S,3R,5R)-2-fluoro-9-azabicyclo[3.3.1]nonan-3-yl)(methyl)amino)pyridazin-3-yl)-5-(5-methyloxazol-2-yl)phenol] | 16 to 50 | 101 to 500 | 101 to 500 | 16 to 50 | 2.31 | 15.2 | 7 | 31 | 41 |  |  |  |  |  |  |  |  |  |
